According to patent publication US12281118B2, “Nitrogen-containing fused heterocyclic SHP2 inhibitor compound, preparation method, and use” (SHANGHAI RINGENE BIOPHARMA CO., LTD., priority 2018, dated 2025):

Legend:
Assay in all cases: Growth inhibition of xenograft in nude mice
Assay type in all cases: in vivo
Settings in all cases: orally, once daily, for 21 consecutive days
[1] = test system: KYSE520 tumor cell xenograft
Text: (§1) Experimental method: 1) Culturing MV 4-11/KYSE520/NCI-H358 cells in a culture medium containing 10% fetal bovine serum. Harvesting tumor cells at an exponential growth phase, and resuspending in PBS to suitable concentrations for subcutaneous tumor inoculation in nude mice. 2) Subcutaneously inoculating 2-8×10^7 tumor cells at the right back of a mouse, and resuspending the cells in PBS and matrigel (1:1); observing tumor growth regularly, and randomizing mice for administration based on tumor size and mouse body weight when tumors grow to a mean volume of ˜120 mm^3-[…]. 3) Defining the day of tumor cell inoculation as Day 0. Prior to the start of dosing, weighing all animals and measuring the tumor volume with a vernier caliper. 3) Administering orally compound of examples (prepared with water for injection containing 1% Tween80 to a desired concentration for use) at a given dose for three consecutive weeks, and giving an equal amount of solvent animals in a solvent control group. Measuring diameters of the xenograft twice a week throughout the experiment, and weighing the mice were at the same time.
(§2) The calculation formula of tumor volume (TV) is: TV=½×a×b^2, wherein a and b represent length and width, respectively. The relative tumor volume (RTV) is calculated based on the measured results using the formula: RTV=Vt/V0, wherein V0 is the tumor volume measured at the time of dosing in separate cages (i.e., Day 0) and Vt is the tumor volume at each measurement. The anti-tumor activity is evaluated by the following measures: 1) relative tumor proliferation rate T/C (%), which is calculated by the following formula: T/C (%)=(TRTV/CRTV)×100%, wherein TRTV: RTV of ae treatment group; CRTV: RTV of a negative control group; 2) inhibition rate of tumor volume growth GI %, which is calculated by the following formula: GI %=[1−(TVt−TV0)/(CVt−[…])]×100%, wherein TVt is the tumor volume at each measurement in the treatment group; TV0 is the tumor volume obtained at the time of dosing in separate cages in the treatment group; CVt is the tumor volume at each measurement in the control group; CV0 is the tumor volume obtained at the time of dosing in separate cages in the control group (specific data are shown in Table 4).

[2] = test system: MV 4-11 tumor cell xenograft
Text: as §1, §2

[3] = test system: NCI-H358 tumor cell xenograft
Text: as §1, §2

Cc1nc(N2CCC3(CC2)Cc2ccccc2[C@H]3N)n2ccnc2c1Sc1ccnc(N)c1Cl [Example 1, (S)-1′-(8-((2-amino-3-chloropyridin-4-yl)thio)-7-methylimidazo [1,2-c]pyrimidin-5-yl)-1,3-dihydrospiro [indene-2,4′-piperidine]-1-amine]
T/C ([1]; 2 mg/kg): 30%
T/C ([1]; 6 mg/kg): 18%
T/C ([2]; 2 mg/kg): 28%
T/C ([2]; 5 mg/kg): 3.0%
T/C ([3]; 0.8 mg/kg): 39%
T/C ([3]; 2.5 mg/kg): 13%
